# Laboratory results reported in patent US20240175039A1, “ENGINEERING PROBIOTIC FOR DEGRADING URIC ACID, AND CONSTRUCTION METHOD THEREFOR AND USE THEREOF” (SHANDONG UNIVERSITY, priority 2022, published 2024).
# T1: Bacillus subtilis PucL^MM (PucL variant PucL^M, Asp-214 to Val and Gln-438 to Arg (D44V and Q268R in PucL^T), SEQ ID NO: 1, co-expressed with PucM, SEQ ID NO: 2 (Bacillus subtilis, UniProt O32141, D214V/Q438R))
# T1 sequence (O32141 1-494 D214V/Q438R): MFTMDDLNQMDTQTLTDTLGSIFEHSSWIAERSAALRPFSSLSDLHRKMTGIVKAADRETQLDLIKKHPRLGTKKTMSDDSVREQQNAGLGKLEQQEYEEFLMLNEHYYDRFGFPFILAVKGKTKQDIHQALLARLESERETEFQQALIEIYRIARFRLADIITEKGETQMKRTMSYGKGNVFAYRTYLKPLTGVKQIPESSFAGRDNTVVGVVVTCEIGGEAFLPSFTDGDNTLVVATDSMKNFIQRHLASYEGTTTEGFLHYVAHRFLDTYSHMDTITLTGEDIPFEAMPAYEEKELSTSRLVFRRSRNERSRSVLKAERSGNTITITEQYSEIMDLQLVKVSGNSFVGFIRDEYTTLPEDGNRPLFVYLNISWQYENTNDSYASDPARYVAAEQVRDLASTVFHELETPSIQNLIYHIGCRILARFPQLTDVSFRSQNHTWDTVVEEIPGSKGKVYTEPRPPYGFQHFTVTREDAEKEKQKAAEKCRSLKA
# T1 sequence (O32142 1-114 partner): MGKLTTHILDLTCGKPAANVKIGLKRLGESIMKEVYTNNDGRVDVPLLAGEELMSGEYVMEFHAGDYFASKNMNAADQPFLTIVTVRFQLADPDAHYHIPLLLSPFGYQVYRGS
# B1: Bacillus subtilis PucL^MM (PucL variant PucL^M, Asp-214 to Val and Gln-438 to Arg (D44V and Q268R in PucL^T), SEQ ID NO: 1, co-expressed with PucM, SEQ ID NO: … (protein)
# chain: MFTMDDLNQMDTQTLTDTLGSIFEHSSWIAERSAALRPFSSLSDLHRKMTGIVKAADRETQLDLIKKHPRLGTKKTMSDDSVREQQNAGLGKLEQQEYEEFLMLNEHYYDRFGFPFILAVKGKTKQDIHQALLARLESERETEFQQALIEIYRIARFRLADIITEKGETQMKRTMSYGKGNVFAYRTYLKPLTGVKQIPESSFAGRDNTVVGVVVTCEIGGEAFLPSFTDGDNTLVVATDSMKNFIQRHLASYEGTTTEGFLHYVAHRFLDTYSHMDTITLTGEDIPFEAMPAYEEKELSTSRLVFRRSRNERSRSVLKAERSGNTITITEQYSEIMDLQLVKVSGNSFVGFIRDEYTTLPEDGNRPLFVYLNISWQYENTNDSYASDPARYVAAEQVRDLASTVFHELETPSIQNLIYHIGCRILARFPQLTDVSFRSQNHTWDTVVEEIPGSKGKVYTEPRPPYGFQHFTVTREDAEKEKQKAAEKCRSLKA
# B2: Bacillus subtilis PucL^T (UriC domain of PucL, urate oxidase) (Bacillus subtilis subsp. subtilis str. 168) (protein)
# chain: MKRTMSYGKGNVFAYRTYLKPLTGVKQIPESSFAGRDNTVVGVDVTCEIGGEAFLPSFTDGDNTLVVATDSMKNFIQRHLASYEGTTTEGFLHYVAHRFLDTYSHMDTITLTGEDIPFEAMPAYEEKELSTSRLVFRRSRNERSRSVLKAERSGNTITITEQYSEIMDLQLVKVSGNSFVGFIRDEYTTLPEDGNRPLFVYLNISWQYENTNDSYASDPARYVAAEQVRDLASTVFHELETPSIQNLIYHIGCRILARFPQLTDVSFQSQNHTWDTVVEEIPGSKGKVYTEPRPPYGFQHFTVTREDAEKEKQKAAEKCRSLKA
# Columns and labels:
# [1] = test system: Bacillus subtilis PucLM (complete PucL co-expressed with PucM, wild type; PucM SEQ ID NO: 2); experiment: UA degradation kinetics (Km, Vmax), cell extract of EcN::pMCS2-Ptrc-pucLM; type: biochemical
# From the text: (§1) The pucL (Gene ID: 936669) and pucM (Gene ID: 937977) genes from Bacillus subtilis were codon-optimized and synthesized by Beijing Genomics Institute (BGI, Beijing). Asp-214 and Gln-438 of PucL were mutated to Val and Arg, respectively. The mutated pucL was named as pucL^M, and pucL^M was codon-optimized and synthesized by Beijing Genomics Institute (BGI, Beijing). The vhb gene (Protein ID: WP_019959060.1) from Vitreoscilla sp. C1 was codon-optimized and synthesized by Beijing Genomics Institute (BGI, Beijing). The ygfU (Gene ID: 949017) and the katG (Gene ID: 948431) genes were PCR amplified from E. coli MG1655 genomic DNA.
# (§2) (1) UA was measured in a buffer solution using a spectrophotometer by directly measuring the absorbance at 293 nm. Firstly, UA standard solutions of 0, 10 μM, 15 μM, 20 μM, 30 μM, 40 μM, 50 μM, 60 μM, and 70 μM were prepared to plot an UA concentration standard curve, obtaining a curve R2 of 0.9997. Subsequently, appropriate dilutions were performed for measurement, and UA concentration was determined.
# The activity of PucL^T can be enhanced by the D44V and Q268R mutations. We directly mutated two sites in the complete PucL (PucLM) and co-expressed them with PucM in EcN (EcN::pMCS2-Ptrc-pucL^MM). Determined by using cell extracts, the Vmax of PucL^MM increased by approximately 1.8 times compared to PucLM. […] Due to the increase in Km, the UA degradation ability of the whole cell of EcN::pMCS2-Ptrc-pucL^MM was weakened when the concentration of UA was low (FIG. 2C).
# [2] = target: T1, Bacillus subtilis PucL^MM (PucL variant PucL^M, Asp-214 to Val and Gln-438 to Arg (D44V and Q268R in PucL^T), SEQ ID NO: 1, co-expressed with PucM, SEQ ID NO: 2); experiment: UA degradation kinetics (Km, Vmax), cell extract of EcN::pMCS2-Ptrc-pucL^MM; type: biochemical; settings: cell extracts
# From the text: (§3) The urate oxidase gene is specifically PucL^M and PucM, whose nucleotide sequences are shown as SEQ ID NO: 1 and SEQ ID NO: 2, respectively; they act together, and in the present invention, they are named PucL^MM.
# as §1
# (§4) (1) UA was measured in a buffer solution using a spectrophotometer by directly measuring the absorbance at 293 nm. […] Subsequently, appropriate dilutions were performed for measurement, and UA concentration was determined.
# (§5) The activity of PucL^T can be enhanced by the D44V and Q268R mutations. […] Determined by using cell extracts, the Vmax of PucL^MM increased by approximately 1.8 times compared to PucLM. […]
# [3] = substrate: O=c1[nH]c(=O)c2[nH]c(=O)[nH]c2[nH]1; experiment: as above; type: biochemical, Bacillus subtilis; settings: other: cell extract, recombinant EcN::pMCS2-Ptrc-pucL^MM
# From the text: as §3, §1, §4, §5
# [4] = substrate: O=c1[nH]c(=O)c2[nH]c(=O)[nH]c2[nH]1; experiment: UA degradation kinetics (Km, Vmax), cell extract of EcN::pMCS2-Ptrc-pucL^T; type: biochemical, Bacillus subtilis; settings: other: cell extract, recombinant EcN::pMCS2-Ptrc-pucL^T
# From the text: as §1, §2
# The UriC domain of PucL (PucL^T) catalyzes step 1 in the UA degradation (FIG. 1), and steps 2 and 3 can occur spontaneously. […]
# as §5
# [5] = cell extract, recombinant EcN::pMCS2-Ptrc-pucLM
molecule,measurement,setting,value
"O=c1[nH]c(=O)c2[nH]c(=O)[nH]c2[nH]1 [UA, uric acid]",Km,[1]; [5],17.2 µM
same,Vmax,[1]; [5],13.88 µM/mg/min
same,Km of PucLM compared with PucL^T,[1]; cell extracts,significantly reduced
same,Vmax of PucLM compared with PucL^T,[1]; cell extracts,similar
same,Km increase of PucL^MM compared to PucLM,[2],approximately 2.0 times
same,Vmax increase of PucL^MM compared to PucLM,[2],approximately 1.8 times
B1,Km,[3],52.54 µM
same,Vmax,[3],38.6 µM/min/mg
B2,Km,[4],61.03 µM
same,Vmax,[4],12.3 µM/min/mg
